US20240060131A1, “METHOD FOR IDENTIFYING AND/OR REGULATING SENESCENCE” (INSTITUTE OF ZOOLOGY, CHINESE ACADEMY OF SCIENCES, priority 2020, published 2024)

How the values were obtained:
[1] = system: old mice; experiment: Abacavir injected to articular cavity of old mice (joint aging); format: in vivo, mouse
Procedure: 10 μl Abacavir (in PBS with 2% DMSO) at the concentration of 10 mg/ml was injected to knee joint cavities of mice of 22 months old (n=12), injected once a week. Grip strength test was performed 4 weeks, 8 weeks and 12 weeks after the first injection. Motor coordination and balance, motor ability and Micro-CT were performed 14 weeks after the first injection, samples were taken, i.e., joints of mice hind limbs were taken out, one was frozen in liquid nitrogen and the other was fixed in 4% PFA.
(§1) Grip strength of the limbs was measured by Grip strength meter (Panlab Grip Strength Meter, LE902) in accordance with the manufacturer's instructions. In brief, mice were put on the top of grip strength meter and pulled along the grid at a constant rate, until mice loosened its grip. The peak tension in each of the 10 repeats was recorded, and the mean value was calculated as grip strength for each mouse.
Mice were placed on a running machine (SANS Bio Instrument, SA101) to test the motor ability of mice in accordance with the manufacturer's instructions. In particular, slope of runway was set as 5°, electrical stimulation was 2 mA, the running speed was set as follows: an initial velocity of 5 m/min for 5 min; then accelerating to final velocity of 25 m/min with an accelerated rate of 1 m/min 2, 20 mins in total. First, mice were trained for three consecutive days, and tested on the fourth day. The times of electrical stimulation, and the run distance in […] were recorded.
Micro-CT (PE Quantum FX) was performed in accordance with the manufacturer's instructions. In brief, mice were anesthetized and placed in the instrument, scanning parameters for Micro-CT were voltage 50Kvp, power 40 W, 6-frame superposition, field 4 cm×4 cm. Three-dimensional images were screenshot after scan and reconstruction, and bone density was calculated by Ansys software.
5.2. Retrovirus inhibitor Abacavir delayed joint aging of old mice Retrovirus inhibitor Abacavir was injected to articular cavity of old mice (23 months old), concentration was 10 mg/ml, once a week, 10 μl every time (as shown by FIG. 32A). (n=10)

[2] = system: WS hMPC; experiment: Ki67 and SA-β-gal staining of WS hMPC treated with retrovirus inhibitors; format: cell-based, human; conditions: WS hMPCs, 10 μM lamivudine (3TC), abacavir (0.2 μM), Raltegravir, vs DMSO solvent control
Procedure: Cells seeded on coverslip (Thermo Fisher Scientific) were washed by PBS, fixed in 4% paraformaldehyde (PFA), permeabilized in 0.4% Triton X-100, blocked by 10% donkey serum. The coverslip was incubated with primary antibody at 4° C. in blocking buffer, then incubated with secondary antibody at room temperature for 1 h. Nucleus was labelled by Hoechst 33342 (Invitrogen).
For treatment by endogenous viral reverse transcriptase inhibitor and integrase inhibitor, hMPCs were treated by […] abacavir, lamivudine (3TC) and Raltegravir, respectively, medium was replaced every 3 days, followed by new treatment. After treatment of two cell passages, cells were used for Ki67 immunofluorescence, SA-β-gal staining and RNA/DNA extraction.
Cells were fixed by a buffer containing 2% (w/v) formaldehyde and 0.2% (w/v) glutaraldehyde for 5 min, and treated by staining buffer containing 1 mg/mL X-gal at 37° C. overnight.
10 μM lamivudine (3TC), abacavir (0.2 μM) and Raltegravir were added to WS hMPC, respectively, incubated at 37° C., and fresh medium containing each drug was replaced every two days, solvents dissolving above-mentioned drug with DMSO added at a corresponding amount were used as control.
Above-mentioned cells were stained by Ki67 and SA-β-gal.

[3] = system: HERVK; experiment: HERVK transposition events (reporter, flow cytometry) and DNA copy number in WS hMPC; format: cell-based, human; conditions: 10 days after incubation
Procedure: The experiment for detecting DNA of HERVK gene by single molecule DNA-FISH was conducted by the National Key Laboratory of Agricultural Microbiology, Huazhong Agricultural University. Senescent cells were successively treated by RNase A (100 μg/mL, dissolved in 2×SSC) at 37° C. for 1 h, treated by 70% formamide dissolved in 2×SSC at 72° C. for 10 min, treated by precooled ethanol (concentration from 80%, 90% to 100%, each treatment for 1 min). Then cells were incubated with HERVK […] specific probe pairs (each probe 10 μM) in hybridization solution (10% deionized formamide, 2×SSC, 10% dextran sulfate and 2 mM VRC) at 42° C. overnight. Washed 3 times by washing buffer (2×SSC, 30% formamide, 0.1% Triton-X 100 and 2 mM VRC), cells were incubated with amplification probes (SFSP-001 and SFTP-001, Spatial FISH, Co., Ltd.) and fluorescent probes (SFFP-001, Spatial FISH, Co., Ltd) together, HERVK DNA was subjected to single molecule detection. Finally, cells were counterstained by DAPI and imaged by confocal microscope.
In brief, to assess transposition events occurred in HERVK during aging process, wild type mesenchymal stem cells of early passage and late passage (P7 generation and P14 generation) were transfected with HERVK reporter plasmid, and meanwhile co-transfected with dsRed, a vector expressing red fluorescence (obtained from Xu Xingzhi's Laboratory, School of Basic Medicine, Shenzhen University) to calculate transfection probability. After the confluence of cells, cells were digested into single cell, and resuspended by PBS, analyzed by flow cytometer BD Influx, the ratio of cells positive for green fluorescence to cells positive for red fluorescence was the probability of transposition events occurred in HERVK.
To construct HERVK transposition reporter vector, first, above-mentioned HERVK fragment was cloned to dsRed vector having KpnI enzyme site mutant (obtained from Xu Xingzhi's Laboratory, School of Basic Medicine, Shenzhen University). GFP reporter (SEQ ID NO: 152) was obtained by PCR amplification from L 1 reporter (gifted by Prof. Wang Jichang, Sun Yat-sen University in Guangzhou, China), GFP reporter was inserted to dsRed-HERVK through KpnI site, contructing HERVK transposition reporter vector.
To assess transposition events occurred for HERVK during aging process, cells of early and late generations were transfected with HERVK reporter plasmid, and meanwhile co-transfected with a vector expressing red fluorescence to calculate transfection probability. After confluence of cells, cells were digested into single cell, and resuspended with PBS, analyzed by flow cytometer BD Influx, the ratio of cells positive for green fluorescence to cells positive for red fluorescence was the probability of transposition events occurred in HERVK. […]

[4] = system: old mice; experiment: Long-term oral administration of Abacavir in drinking water to old mice; format: in vivo, mouse; conditions: for mice died: n=23
Procedure: Abacavir was dissolved in drinking water containing 0.4% DMSO at 2 mg/ml, mice of 18 months old were administered by feeding the water daily (n=23). The weight, hollow back, hair, skin, eye (cataract) and activity score of mice were measured 6 weeks, 12 weeks and 24 weeks after administration, grip strength was measured and a survival curve was plotted. […]
as §1
Mice were placed in the end of any arm of Y maze (trisection radiation maze, consisting of 3 arms with equal length (50 cm×18 cm×35 cm), the intersection angle between every two arms was 120 degree), allowed to explore freely for 5 min, animal behavior changes in 5 min were recorded by camera system, and the short-term spatial memory ability of mice was detected by recording the total times that the mice entered the arms and the rotations that the mice entered in turn the three arms of the Y maze.
Retrovirus inhibitor Abacavir was dissolved in drinking water for mice (containing 0.3% DMSO) at a concentration of 2 mg/ml (n=23), and mice of 18 months old was administered daily (as shown by FIG. 33A).

[5] = system: old mice; experiment: Long-term intraperitoneal injection of Ratelgravir to old mice; format: in vivo, mouse; conditions: 16 weeks
Procedure: Ratelgravir was dissolved at 50 mg/ml in 30% PEG300+2% Tween80+2% DMSO, and intraperitoneally injected to mice at 18 months old, […] each time, twice a week (n=23). The weight, hollow back, hair, skin, cataract and activity score of mice were measured 8 weeks and 16 weeks after first injection, grip strength was measured and a survival curve was plotted.
as §1
The retrovirus integrase inhibitor Ratelgravir was dissolved in 30% PEG300+2% Tween80+2% DMSO at a concentration of 50 mg/ml, mice at 18 months old was injected intraperitoneally, […], 200 μl/injection, twice a week (as shown by FIG. 34A).

[6] = system: cGAS-STING pathway; experiment: cGAS-STING innate immune pathway and SASP in hMPCs (Western blot, RT-qPCR); format: cell-based, human; conditions: knockdown in HGPS and WS hMPCs
Procedure: Cells were lysed in 1×SDS buffer (100 mM Tris-HCl, pH 6.8, 10% glycerol, 2% SDS and 2%2-mercaptoethanol), boiled for 10 min at 105° C. Protein concentration was measured by BCA kit. Cell lysate was subjected to SDS-PAGE electrophoresis, then transferred to PVDF membrane (Millipore). The membrane was incubated with primary antibody, incubated with secondary antibody conjugated to HRP after washing, then blotted with substrate, the substrate was the mixture of 1000 μL substrate A and 3 μL substrate B (substrate A: 0.2 mM cumaric acid, 1.25 mM luminal, 0.1 M Tris-HCl, pH 8.5; substrate B: 3% H2O2) or Super Signal West Femto Maximum Sensitivity Substrate (Thermo Fisher Scientific). Images were taken by Image Lab software. Quantification was conducted by ImageJ.
In accordance with the manufacturer's instructions, total RNA of cell was extracted by TRIzol (Thermo Fisher Scientific); reverse transcribed into cDNA with GoScript reverse transcription system (Promega) for RT-qPCR; RT-qPCR was conducted with THUNDERBIRD qPCR Mix (TOYOBO) and CFX384 real-time system (Bio-Rad Laboratories, Inc.).
To further study the activation of cGAS-STING DNA sensing pathway, the following key characteristics in different senescent hMPCs (including RS, HGPS and WS) and fibroblasts were detected: […] TANK binding kinase 1 (TBK1) and IFN regulating factor 3 (IRF3) as well as proinflammatory cytokines (e.g., IL1B andIL6), these factors were regarded as SASP factors.

[7] = articular cavity injection, P value not significant
[8] = drinking water 2 mg/ml, 24 weeks
[9] = drinking water 2 mg/ml, 30 weeks

Nc1nc(NC2CC2)c2ncn([C@H]3C=C[C@@H](CO)C3)c2n1 [Abacavir, abacavir]
bone density of joint ([1]; 15 weeks after injecting): increased | expression of senescence-associated protein p21 in joint ([1]; RT-qPCR of joint RNA): decreased | level of inflammatory factor IL1B in joint ([1]; RT-qPCR of joint RNA): decreased | level of inflammatory factor IL6 in joint ([1]; RT-qPCR of joint RNA): decreased | forced treadmill running distance [1, 7]: improve | forced treadmill running time [1, 7]: improve | forced treadmill shocked time ([1]; articular cavity injection, trend, P value not significant): reduce | limb tension of mice ([1]; old mice (23 months old), articular cavity 10 mg/ml, 10 μl once a week, 8 weeks after injecting, vs vehicle): significantly was enhanced | Ki67 positive cells [2]: increase | SA-β-gal positive cells [2]: reduce | Ki67 positive cells ([2]; listed as abacavir): significantly were increased | SA-β-gal positive cells ([2]; listed as abacavir): significantly were decreased | HERVK DNA copy number [3]: decreases | HERVK transposition events [3]: reduces | HERVK DNA copy number ([3]; listed as abacavir): effectively reduce | HERVK transposition events ([3]; listed as abacavir): effectively reduce | mice died ([4]; 24 weeks after administering, control group 2 died): 0 | mice died ([4]; 30 weeks after administering, control group 4 died): 1 | spatial short-term memory ability ([4]; Y Maze, 30 weeks): enhanced | condition of hair [4, 8]: improve | condition of hollow back [4, 8]: improve | mobility ability of mice [4, 8]: enhance | Y Maze rotations that the mice entered in turn the three arms [4, 9]: increased | Y Maze total times that the mice entered the arms [4, 9]: increased | survival rate of old mice ([4]; drinking water 2 mg/ml, up to 30 weeks): improve | limb tension of mice ([4]; mice of 18 months old, 2 mg/ml in drinking water daily, 12 weeks): significantly enhanced

Cc1nnc(C(=O)NC(C)(C)c2nc(C(=O)NCc3ccc(F)cc3)c(O)c(=O)n2C)o1 [Raltegravir]
Ki67 positive cells [2]: significantly were increased | SA-β-gal positive cells [2]: significantly were decreased | Ki67 positive cells ([2]; listed as Ratelgravir): increase | SA-β-gal positive cells ([2]; listed as Ratelgravir): reduce | condition of hair ([5]; i.p. twice a week): improve | condition of hollow back ([5]; i.p. twice a week): improve | limb tension of mice ([5]; mice at 18 months old, 50 mg/ml, 200 μl i.p. twice a week, vs vehicle): significantly was increased

shSTING-2 (guide GCCCGGATTCGAACTTACAAT; chemistry not given here)
SASP [6]: alleviated | cell senescence [6]: alleviated | phosphorylation level of IRF3 [6]: reduced | phosphorylation level of RelA [6]: reduced | phosphorylation level of TBK1 [6]: reduced
